Broadly, the CC50 is the concentration at which the toxic effect on the cells reaches its halfway point. By EC50 is commonly meant the concentration giving half of the maximal effect. Broadly, the IC50 is the concentration that gives 50% inhibition.

Active and inactive are the calls of the source.

The target in one experiment is Cytochrome P450 2D6 (Homo sapiens, UniProt P10635). In words: qHTS Assay for Inhibitors and Substrates of Cytochrome P450 2D6. [Related pubchem assays: 410 ]. Type of experiment: ADME. Conditions: read-out: Potency. On the technique in general: qHTS replaces the single test concentration by a dilution series.
Cytochrome P450 2D6, sequence (P10635 whole entry): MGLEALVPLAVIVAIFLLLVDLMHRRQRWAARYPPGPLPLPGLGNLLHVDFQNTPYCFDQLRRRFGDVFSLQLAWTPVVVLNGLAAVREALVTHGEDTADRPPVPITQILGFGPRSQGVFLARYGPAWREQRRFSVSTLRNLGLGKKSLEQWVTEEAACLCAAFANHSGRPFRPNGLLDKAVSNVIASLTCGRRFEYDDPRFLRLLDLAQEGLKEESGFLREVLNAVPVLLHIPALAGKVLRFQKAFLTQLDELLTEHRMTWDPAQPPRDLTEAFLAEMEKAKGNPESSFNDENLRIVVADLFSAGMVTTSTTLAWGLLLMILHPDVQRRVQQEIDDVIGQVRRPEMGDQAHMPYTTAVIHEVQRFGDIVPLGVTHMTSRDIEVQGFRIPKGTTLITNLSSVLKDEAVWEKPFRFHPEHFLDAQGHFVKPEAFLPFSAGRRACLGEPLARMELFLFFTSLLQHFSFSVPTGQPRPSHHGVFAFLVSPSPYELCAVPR
A short description of experiment [1]: A Cell Based Secondary Assay To Explore Cytotoxicity of Compounds that Sensitize Mycobacterium Tuberculosis to Beta-Lactam Antibiotics. Type of experiment: functional.
Another experiment addresses Cytochrome P450 2C9 (Homo sapiens, UniProt P11712). Conditions: Potency.
In a further experiment the test system is Streptococcus. In words: Group A Streptococcus viability loss, dose response, counter-screen for streptokinase expression inhibitor project, luminescence, BacTiterGlo (AID 1915).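 Note: potency for reduction of bacterial viability or growth.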 Type of experiment: functional, organism-based. In general terms: The purpose of a counterscreen is to sort out artefacts and off-target activity.
Experiment [2] relates to Streptococcus sp. 'group A'. In words: growth inhibition of control SK(-) GAS strain, dose response, counter-screen for streptokinase expression inhibitor project, luminescence, kanamycin, BacTiterGlo, confirmation (AID 1900). Type of experiment: functional, organism-based.
In a further experiment the target is T1, Hexokinase HKDC1 (Homo sapiens, UniProt Q2TB90).
T1 sequence (Q2TB90 whole entry): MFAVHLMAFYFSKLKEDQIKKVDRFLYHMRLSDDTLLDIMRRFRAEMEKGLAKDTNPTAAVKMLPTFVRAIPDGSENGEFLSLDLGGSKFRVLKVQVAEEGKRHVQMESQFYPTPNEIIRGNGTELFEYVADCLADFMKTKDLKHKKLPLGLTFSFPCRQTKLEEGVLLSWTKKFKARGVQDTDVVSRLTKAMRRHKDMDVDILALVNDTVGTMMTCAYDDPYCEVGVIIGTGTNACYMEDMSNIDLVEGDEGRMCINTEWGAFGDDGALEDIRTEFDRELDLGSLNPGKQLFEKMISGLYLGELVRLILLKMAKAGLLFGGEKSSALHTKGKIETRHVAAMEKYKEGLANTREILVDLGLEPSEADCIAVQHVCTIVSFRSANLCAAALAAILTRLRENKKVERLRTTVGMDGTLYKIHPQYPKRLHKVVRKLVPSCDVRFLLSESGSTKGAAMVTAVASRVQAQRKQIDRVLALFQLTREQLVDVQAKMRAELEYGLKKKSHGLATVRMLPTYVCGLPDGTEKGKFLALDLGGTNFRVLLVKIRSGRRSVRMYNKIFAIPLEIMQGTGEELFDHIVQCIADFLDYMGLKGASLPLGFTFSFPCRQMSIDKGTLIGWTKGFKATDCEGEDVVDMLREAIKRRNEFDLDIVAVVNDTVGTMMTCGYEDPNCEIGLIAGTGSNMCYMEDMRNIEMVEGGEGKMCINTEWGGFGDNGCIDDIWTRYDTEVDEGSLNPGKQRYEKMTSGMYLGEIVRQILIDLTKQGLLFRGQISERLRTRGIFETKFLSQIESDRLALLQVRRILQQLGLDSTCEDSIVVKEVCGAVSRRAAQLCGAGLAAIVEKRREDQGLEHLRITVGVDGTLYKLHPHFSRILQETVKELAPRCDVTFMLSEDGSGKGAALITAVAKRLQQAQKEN
In words: HKDC1 hexokinase inhibitors, dose response, biochemical, W721R variant (AID 504729). Type of experiment: functional.

For the next experiment, the target named is T2, Estrogen receptor (Homo sapiens, UniProt P03372).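 Note: potency for inhibiting coactivator peptide recruitment to the receptor.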
T2 sequence (P03372 whole entry): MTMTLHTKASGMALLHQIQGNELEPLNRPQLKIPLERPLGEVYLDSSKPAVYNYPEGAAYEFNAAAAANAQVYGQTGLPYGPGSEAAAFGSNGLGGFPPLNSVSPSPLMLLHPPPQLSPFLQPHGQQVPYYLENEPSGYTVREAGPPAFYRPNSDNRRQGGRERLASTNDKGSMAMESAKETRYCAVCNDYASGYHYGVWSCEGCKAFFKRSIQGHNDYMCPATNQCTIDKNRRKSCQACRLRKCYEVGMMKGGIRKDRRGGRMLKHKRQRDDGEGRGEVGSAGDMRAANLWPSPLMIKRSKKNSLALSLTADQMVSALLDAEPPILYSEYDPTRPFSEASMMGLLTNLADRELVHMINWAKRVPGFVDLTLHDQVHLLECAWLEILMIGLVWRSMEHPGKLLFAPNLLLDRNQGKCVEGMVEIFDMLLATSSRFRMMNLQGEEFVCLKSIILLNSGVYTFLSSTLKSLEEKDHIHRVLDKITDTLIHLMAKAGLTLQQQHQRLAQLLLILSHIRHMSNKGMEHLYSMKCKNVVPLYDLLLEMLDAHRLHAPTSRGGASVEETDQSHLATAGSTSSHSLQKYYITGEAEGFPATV

In experiment [3] the target is Peroxisome proliferator-activated receptor gamma/Nuclear receptor coactivator 1 (Homo sapiens, UniProt P37231). Type of experiment: functional.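 Note: agonist potency as compounds enhance coactivator SRC-1 recruitment to PPARgamma.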
Peroxisome proliferator-activated receptor gamma/Nuclear receptor coactivator 1, sequence (P37231 whole entry): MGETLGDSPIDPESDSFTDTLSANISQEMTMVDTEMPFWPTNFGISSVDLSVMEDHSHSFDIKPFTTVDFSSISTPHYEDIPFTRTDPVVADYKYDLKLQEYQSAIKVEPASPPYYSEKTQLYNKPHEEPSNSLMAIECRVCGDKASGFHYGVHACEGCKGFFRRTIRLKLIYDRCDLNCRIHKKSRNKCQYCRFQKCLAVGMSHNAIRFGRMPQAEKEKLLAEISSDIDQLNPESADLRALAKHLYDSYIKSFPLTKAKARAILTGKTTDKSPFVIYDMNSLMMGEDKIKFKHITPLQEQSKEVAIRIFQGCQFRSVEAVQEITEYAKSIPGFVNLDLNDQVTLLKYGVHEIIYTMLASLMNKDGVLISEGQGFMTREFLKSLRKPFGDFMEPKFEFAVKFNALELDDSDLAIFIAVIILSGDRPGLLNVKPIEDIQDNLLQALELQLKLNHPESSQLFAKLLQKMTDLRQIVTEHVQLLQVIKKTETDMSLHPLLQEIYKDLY
Peroxisome proliferator-activated receptor gamma/Nuclear receptor coactivator 1, sequence (Q15788 whole entry, further chain): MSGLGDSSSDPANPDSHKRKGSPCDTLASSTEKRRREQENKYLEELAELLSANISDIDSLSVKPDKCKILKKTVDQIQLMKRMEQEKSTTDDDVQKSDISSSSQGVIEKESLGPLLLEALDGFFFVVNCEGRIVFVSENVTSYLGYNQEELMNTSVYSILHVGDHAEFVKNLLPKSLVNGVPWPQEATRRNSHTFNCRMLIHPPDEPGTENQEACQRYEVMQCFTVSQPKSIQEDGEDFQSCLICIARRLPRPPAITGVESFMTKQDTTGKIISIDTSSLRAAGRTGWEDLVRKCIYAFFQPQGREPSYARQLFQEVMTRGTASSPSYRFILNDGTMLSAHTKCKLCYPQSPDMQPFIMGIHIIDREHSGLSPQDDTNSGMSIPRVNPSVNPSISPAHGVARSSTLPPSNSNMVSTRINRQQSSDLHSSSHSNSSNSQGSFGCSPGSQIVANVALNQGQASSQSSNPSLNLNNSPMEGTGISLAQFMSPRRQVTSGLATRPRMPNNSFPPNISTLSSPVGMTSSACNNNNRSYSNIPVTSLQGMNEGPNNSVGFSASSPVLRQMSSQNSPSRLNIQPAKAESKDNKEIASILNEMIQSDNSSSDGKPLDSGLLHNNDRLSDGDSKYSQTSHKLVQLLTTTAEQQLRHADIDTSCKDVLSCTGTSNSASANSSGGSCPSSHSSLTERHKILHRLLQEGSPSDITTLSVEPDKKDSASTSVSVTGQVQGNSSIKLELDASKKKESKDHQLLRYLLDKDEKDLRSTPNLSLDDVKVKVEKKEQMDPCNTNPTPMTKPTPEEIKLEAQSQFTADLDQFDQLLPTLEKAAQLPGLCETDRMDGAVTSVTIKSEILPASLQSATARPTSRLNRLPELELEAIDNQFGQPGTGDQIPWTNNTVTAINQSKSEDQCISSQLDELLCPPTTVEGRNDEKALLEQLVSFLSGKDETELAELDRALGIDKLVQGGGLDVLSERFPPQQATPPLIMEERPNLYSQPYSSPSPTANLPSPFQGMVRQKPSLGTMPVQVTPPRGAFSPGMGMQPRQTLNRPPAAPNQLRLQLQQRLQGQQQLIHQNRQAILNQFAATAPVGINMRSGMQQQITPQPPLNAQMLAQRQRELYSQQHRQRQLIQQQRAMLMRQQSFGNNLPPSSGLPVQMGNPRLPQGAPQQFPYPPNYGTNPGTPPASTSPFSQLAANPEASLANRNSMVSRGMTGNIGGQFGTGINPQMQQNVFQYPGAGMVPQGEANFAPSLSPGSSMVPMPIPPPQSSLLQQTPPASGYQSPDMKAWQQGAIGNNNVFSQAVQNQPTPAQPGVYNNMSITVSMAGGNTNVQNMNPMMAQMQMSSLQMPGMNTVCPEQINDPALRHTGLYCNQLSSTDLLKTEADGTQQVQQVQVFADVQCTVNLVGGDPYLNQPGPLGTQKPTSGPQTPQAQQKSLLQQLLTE
For experiment [4], the target named is Peroxisome proliferator-activated receptor gamma/Nuclear receptor coactivator 2 (Homo sapiens, UniProt P37231). Type of experiment: functional.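 Note: agonist potency for raising coactivator recruitment to the receptor.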
Peroxisome proliferator-activated receptor gamma/Nuclear receptor coactivator 2, sequence (P37231 whole entry): as the sequence (P37231 whole entry) above
Peroxisome proliferator-activated receptor gamma/Nuclear receptor coactivator 2, sequence (Q15596 whole entry, further chain): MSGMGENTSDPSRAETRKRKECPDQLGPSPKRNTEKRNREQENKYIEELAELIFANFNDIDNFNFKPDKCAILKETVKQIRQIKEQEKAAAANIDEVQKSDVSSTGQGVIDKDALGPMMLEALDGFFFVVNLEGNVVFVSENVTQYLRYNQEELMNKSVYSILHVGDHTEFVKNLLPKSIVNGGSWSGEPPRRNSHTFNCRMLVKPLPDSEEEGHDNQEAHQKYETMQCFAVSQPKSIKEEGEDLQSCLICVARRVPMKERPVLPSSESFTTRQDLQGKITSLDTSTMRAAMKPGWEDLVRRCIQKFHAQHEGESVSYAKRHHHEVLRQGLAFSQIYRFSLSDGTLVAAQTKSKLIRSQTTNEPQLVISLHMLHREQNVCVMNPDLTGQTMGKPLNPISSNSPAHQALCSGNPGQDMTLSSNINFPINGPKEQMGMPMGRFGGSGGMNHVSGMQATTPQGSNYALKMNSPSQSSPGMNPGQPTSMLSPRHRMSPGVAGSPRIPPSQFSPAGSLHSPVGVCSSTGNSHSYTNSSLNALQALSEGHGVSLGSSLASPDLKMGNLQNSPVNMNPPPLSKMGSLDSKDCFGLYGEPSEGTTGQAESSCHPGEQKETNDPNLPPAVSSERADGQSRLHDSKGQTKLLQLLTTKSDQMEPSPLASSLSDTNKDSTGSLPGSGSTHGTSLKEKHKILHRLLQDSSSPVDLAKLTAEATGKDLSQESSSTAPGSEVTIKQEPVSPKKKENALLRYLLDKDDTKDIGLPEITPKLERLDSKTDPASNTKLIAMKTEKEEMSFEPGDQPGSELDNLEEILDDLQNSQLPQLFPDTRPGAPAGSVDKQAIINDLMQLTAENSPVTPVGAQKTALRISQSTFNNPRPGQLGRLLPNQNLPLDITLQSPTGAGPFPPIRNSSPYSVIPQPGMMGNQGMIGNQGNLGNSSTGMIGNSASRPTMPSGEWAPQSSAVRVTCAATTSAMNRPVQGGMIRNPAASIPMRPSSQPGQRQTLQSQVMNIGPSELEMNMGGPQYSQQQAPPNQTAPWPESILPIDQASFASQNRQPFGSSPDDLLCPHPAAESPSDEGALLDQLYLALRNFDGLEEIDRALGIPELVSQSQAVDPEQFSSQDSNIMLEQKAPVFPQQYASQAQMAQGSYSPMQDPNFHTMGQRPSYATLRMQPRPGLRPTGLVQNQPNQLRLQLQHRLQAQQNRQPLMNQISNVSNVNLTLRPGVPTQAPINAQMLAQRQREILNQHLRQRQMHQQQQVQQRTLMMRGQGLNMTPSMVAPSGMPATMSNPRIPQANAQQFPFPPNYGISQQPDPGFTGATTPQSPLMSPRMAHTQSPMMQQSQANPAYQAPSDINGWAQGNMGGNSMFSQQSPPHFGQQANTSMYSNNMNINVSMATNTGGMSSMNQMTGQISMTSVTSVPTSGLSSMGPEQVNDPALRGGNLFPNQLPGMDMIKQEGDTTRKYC
The target in experiment [5] is Peroxisome proliferator-activated receptor gamma/Nuclear receptor coactivator 3 (Homo sapiens, UniProt P37231). Type of experiment: functional.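 Note: agonist potency for raising coactivator recruitment to the receptor.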
Experiment [6] concerns the target Sphingosine 1-phosphate receptor 2 (Homo sapiens, UniProt O95136). In words: Dose Response Cell Based Assay for Antagonists of the S1P2 Receptor. [Related pubchem assays: 856, 736 ]. Type of experiment: functional.
Experiment [7] is described as follows: Luminescence Cell-Based Dose Response HTS to Identify Inhibitors of 5'UTR Stem-Loop Driven Prion Protein mRNA Translation in H4 Neuroglioblastoma Cells. [Related pubchem assays: 1827 (Project Summary), 1813 (Primary HTS)]. Type of experiment: functional.
Experiment [8] in a line: inhibitors of firefly luciferase expression or activity, dose response, H4 neuroglioma cells, luminescence (AID 1990). Type of experiment: functional, cell-based.
The next experiment has as its target T3, Cytochrome P450 1A2 (Homo sapiens, UniProt P05177).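 Note: PubChem cytochrome P450 panel assay, CYP1A2 panel member.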
T3 sequence (P05177 whole entry): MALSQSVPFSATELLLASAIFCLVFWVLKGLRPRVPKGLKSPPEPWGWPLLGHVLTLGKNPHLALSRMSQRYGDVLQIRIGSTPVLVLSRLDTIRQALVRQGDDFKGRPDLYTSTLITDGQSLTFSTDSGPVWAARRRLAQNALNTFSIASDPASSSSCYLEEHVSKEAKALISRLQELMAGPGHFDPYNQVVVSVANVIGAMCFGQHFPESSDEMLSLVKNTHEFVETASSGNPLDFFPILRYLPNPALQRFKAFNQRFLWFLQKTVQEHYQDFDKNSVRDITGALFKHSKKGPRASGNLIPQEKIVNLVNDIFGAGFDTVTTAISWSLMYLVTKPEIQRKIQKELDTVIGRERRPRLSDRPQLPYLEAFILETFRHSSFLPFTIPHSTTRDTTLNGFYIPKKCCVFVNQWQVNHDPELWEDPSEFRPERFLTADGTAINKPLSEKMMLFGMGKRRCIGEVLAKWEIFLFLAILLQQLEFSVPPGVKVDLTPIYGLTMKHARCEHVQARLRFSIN

Experiment [9] can be described thus: HepG2 cell cytotoxicity, dose response, cytotoxicity control for Shn3 inhibitor project, CellTiter-Glo, cherry-picked (AID 624134). Type of experiment: functional, cell-based. A general note: ATP-based viability assays read luminescence as a measure of living cells.
A short description of experiment [10]: Shn3 3'UTR reporter inhibitors, dose response, cell-based, Clone20 osteoblasts, firefly luciferase, cherry-picked (AID 624132).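 Note: firefly luciferase luminescence from reporter carrying the Shn3 3'UTR in osteoblasts.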 Type of experiment: functional.
A further experiment concerns INS1. In words: beta cell apoptosis inhibitors, cytokine rescue, dose response, luminescence, retest (AID 449756).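 Note: cell death triggered by IL-1 beta plus TNF-alpha plus IFN-gamma mixture; protective hits raise ATP signal compared with cytokine alone wells.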 Type of experiment: functional, cell-based. The note with it: Rattus norvegicus.
Experiment [11] in a line: inhibitors of SNCA 5'UTR-driven reporter translation, confirmation, H4 neuroglioma cells, luminescence (AID 1988). Type of experiment: functional, cell-based.
Experiment [12] in a line: control 3'UTR Renilla luciferase suppression, dose response, counter-screen for Shn3 inhibitor project, cell-based, Clone20-Shn3RL, cherry-picked (AID 624133). Type of experiment: functional.
Another experiment addresses Cytochrome P450 2C19 (Homo sapiens, UniProt P33261). In words: Cytochrome panel assay with activity outcomes. Panel member name: p450-cyp2c19 Compounds with AC50 equal or less than 10 uM are considered active. Type of experiment: functional. The note with it: read-out: AC50.
The nature of experiment [13]: cytotoxicity in HEK-293T cells, dose response, cytotoxicity control for TCR NF-kB inhibitor project, luminescence, T-cell screen hits (AID 489026).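 Note: cells exposed to compound about 14 hours before the viability readout.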 Type of experiment: functional, cell-based.
Experiment [14] is described as follows: NIH-3T3 fibroblast cytotoxicity, dose response, cytotoxicity control, cell-based, fluorescence, Alamar Blue, secondary assay (AID 2327).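 Note: NIH-3T3 mouse fibroblasts cultured with fluconazole at 8 µg/mL.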 Type of experiment: functional.
The nature of experiment [15]: C. albicans growth with fluconazole, confirmation, fluorescence, retest (AID 2467). Type of experiment: functional, cell-based.
In a further experiment the target is Cytochrome P450 3A4 (Homo sapiens, UniProt P08684).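 Note: CYP3A4 tested as one member of a cytochrome P450 panel screen.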
The nature of experiment [16]: Luminescence-based dose response cell-based high throughput screening assay for cytotoxic compounds using the IEC-6 intestinal epithelial cell line. [Related pubchem assays: 1858 (Summary AID.), 1825 (Counterscreen.), 1907 (Confirmation screen.)]. Type of experiment: functional.
Experiment [17] in a line: A cytotoxicity screen of small molecule inhibitors of the PhoP region in Salmonella typhi identified in the primary screen. [Related pubchem assays: 1850, 1864, 1985 ]. Type of experiment: functional.
A short description of experiment [18]: inhibitors of intracellular T. cruzi replication, confirmation, NIH3T3 host cells, beta-gal luminescence (AID 2044).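 Note: intracellular parasites grown in NIH/3T3 mouse fibroblasts as host cells; luminescent beta-galactosidase reporter signal from transgenic T. cruzi replicating inside host cells; inhibitors lower the luminescence signal.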 Type of experiment: functional, cell-based.
Experiment [19] in a line: cytotoxicity toward NIH3T3 fibroblasts, dose response, counter-screen, cell-based, ATP luminescence, mouse fibroblasts (AID 2010).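 Note: cells exposed to compound for about 90 hours before reading.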 Type of experiment: functional.
Experiment [20] in a line: Luminescence-based counterscreen assay for KLF5 inhibitors: dose response cell-based high throughput screening assay to identify cytotoxic compounds using the IEC-6 intestinal epithelial cell line. [Related pubchem assays: 1700 (Primary screen.), 1834 (Confirmation screen.), 1858 (Summary AID.), 1905 (Counterscreen.)]. Type of experiment: functional.

Cytochrome P450 2C9, sequence (P11712 whole entry): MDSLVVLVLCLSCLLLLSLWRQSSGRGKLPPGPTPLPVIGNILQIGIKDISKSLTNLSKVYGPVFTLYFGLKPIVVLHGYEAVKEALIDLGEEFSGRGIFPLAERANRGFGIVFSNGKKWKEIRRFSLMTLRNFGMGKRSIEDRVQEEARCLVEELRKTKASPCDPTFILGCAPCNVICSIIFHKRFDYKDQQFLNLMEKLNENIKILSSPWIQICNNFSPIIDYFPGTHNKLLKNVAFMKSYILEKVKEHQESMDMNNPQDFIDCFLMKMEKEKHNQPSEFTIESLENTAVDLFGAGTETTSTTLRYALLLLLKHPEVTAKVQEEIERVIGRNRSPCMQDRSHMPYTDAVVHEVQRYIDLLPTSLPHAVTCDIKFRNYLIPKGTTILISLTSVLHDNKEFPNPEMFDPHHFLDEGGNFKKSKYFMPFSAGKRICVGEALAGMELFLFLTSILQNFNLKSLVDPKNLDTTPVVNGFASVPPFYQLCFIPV

Regarding `CC12C=C(/C=C/C=C/c3ccccc3)C(C)(C1)C(/C=C/c1ccccc1)CC2=O` (centres undefined), the AC50 at Cytochrome P450 2D6 is 3.16 µM (inconclusive).

Consider `COc1ccc(OC)c(-c2cc(C(=O)Nc3c(C)nn(Cc4ccccc4C)c3C)no2)c1`, for which the CC50 in experiment [1] was 34.7 µM (active).

For `COc1cc(OC)cc([C@H](CNc2ncnc3c2ncn3[C@@H]2O[C@@H](CO)[C@H](O)[C@@H]2O)c2ccccc2C)c1`, the AC50 on Cytochrome P450 2D6 was 39.8 µM (inconclusive); at Cytochrome P450 2C9, 0.0158 µM (inconclusive).

Turning to `Cn1c2ccccc2c(=O)c2c(=O)n(-c3ccc(F)cc3)c(-c3cccs3)nc21`, the values for the half-maximal effective concentration (EC50) (in the experiment with Streptococcus; in experiment [2]) were 9.21 µM (active) and 9.47 µM (active), respectively. The IC50 at Hexokinase HKDC1 was 2.72 µM (active).

For the compound `COC(=O)Oc1c(Br)c(=O)oc2ccccc12`, the IC50 on Estrogen receptor is given as > 50 µM (not active).

Turning to `CC(C)C[C@@H](CC(=O)N[C@@H](CCCN)CC(=O)N[C@@H]1CCNC[C@H]1C(=O)N[C@H](CC(=O)N[C@@H](CCC(=O)O)CC(=O)O)CC(C)C)NC(=O)[C@@H]1CCCC[C@H]1N`, at Cytochrome P450 2C9, the AC50 is 12.6 µM (inconclusive).

Take `CC(C)(C)c1nnc(NC(=O)CN2C(=O)C3C4C=CC(C4)C3C2=O)s1` (centres undefined): the EC50 in experiment [3], in experiment [4] and in experiment [5] was > 79.4 µM (not active) in each case.

With `C/C(N)=C(/C#N)C(=O)COC(=O)c1cc2c(s1)CCCC2`, in “cells”, the IC50 was 21.3 µM (active).

With `COC(=O)c1ccc(NC(=O)CSc2n[nH]c(-c3ccncc3)n2)cc1`, the IC50 on Hexokinase HKDC1 was 17.6 µM (active).

As to `CCc1ccc(OCC(=O)NNC(=O)CSc2ncnc3sc(C)c(C)c23)cc1`, the results for the EC50 in [3], in experiment [4] and in [5] were 28.8 µM (not active), 25.7 µM (not active) and 33.8 µM (not active), respectively.

For the compound `Cn1c2c(c(=O)n(C)c1=O)C(C(F)(F)F)(C(F)(F)F)NC(c1ccc(Cl)cc1)=N2`, the IC50 in [6] is 3.79 µM (active); in [13] it was > 80 µM (inactive); in experiment [16], 2.72 µM (active). In addition, the EC50 in experiment [7] is 3.25 µM (active); in experiment [8] it was 0.383 µM (active); in experiment [11], 2.83 µM (active); in experiment [14], 2.61 µM (active); in experiment [15] it was 0.628 µM (active). For the same compound, the AC50 at Cytochrome P450 1A2 is 17.8 µM (inconclusive); in experiment [9], 0.756 µM (active); in experiment [10] it was 1.47 µM (active); with INS1, 0.983 µM (active); in [12] it was 2.03 µM (active); on Cytochrome P450 2C19, 2.82 µM (inconclusive). Also, the AC50 at Cytochrome P450 3A4 is 15.8 µM (inconclusive).

For `O=C(/C=C/c1ccc(Cl)cc1Cl)NCc1ccncc1`, in [17], the EC50 is > 50 µM (active).

Turning to `CCCCOc1ccc(/C=N/Nc2cc(N3CCOCC3)nc(C)n2)cc1`, the figures for the EC50 in [18] and in [19] were 2.46 µM (active) and > 60 µM (not active), respectively. For the same compound, the CC50 in experiment [1] was > 40 µM (active).

On to `CCOC(=O)c1sc(NC(=O)c2cc3ccccc3o2)nc1C`, for which the IC50 in experiment [20] is listed as > 39.8 µM (not active).

Take `C#Cc1ccc([C@@H]2C=C(C(=O)N3CCN(Cc4ccccc4)CC3)O[C@H](OCCCCO)C2)cc1`: the EC50 was 9.17 µM (active) in experiment [7], 9.88 µM (active) in experiment [8] and 7.64 µM (active) in [11]. In addition, the IC50 in experiment [20] is > 39.8 µM (not active); in experiment [13], > 80 µM (inactive). Moreover, the AC50 with INS1 is 1.01 µM (active).

As for `O=C(N/N=C/C1CC=CCC1)c1cc(Br)ccc1O` (centres undefined), in experiment [17], the concentration for a half-maximal effect (EC50) was > 50 µM (active).
